Measurements reported in ChEMBL document CHEMBL1201861, “Genomics of Drug Sensitity in Cancer screening data, Wellcome Trust Sanger Institute”.

Assays:
Assay in all cases: cells
[1] = test system: COR-L88; format: functional, cell-based; conditions: Homo sapiens;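 also: growth inhibition of COR-L88 cells, read out with a cell viability assay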
Description: SANGER: Inhibition of human COR-L88 cell growth in a cell viability assay.

[2] = test system: Ca-Ski; format: functional, cell-based; conditions: Homo sapiens;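 also: cell viability assay measuring inhibition of Ca-Ski cell growth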
Description: SANGER: Inhibition of human Ca-Ski cell growth in a cell viability assay.

[3] = test system: Ca9-22; format: functional, cell-based, Homo sapiens; conditions: Homo sapiens, Ca9-22;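 also: growth inhibition of Ca9-22 cells, read out with a cell viability assay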
Description: SANGER: Inhibition of human Ca9-22 cell growth in a cell viability assay.

[4] = test system: DMS-273; format: functional, cell-based, Homo sapiens; conditions: Homo sapiens, DMS-273
Description: SANGER: Inhibition of human DMS-273 cell growth in a cell viability assay.

[5] = test system: DOK; format: functional, cell-based, Homo sapiens; conditions: Homo sapiens, DOK;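 also: cell viability assay read-out, values reflect inhibition of cell growth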
Description: SANGER: Inhibition of human DOK cell growth in a cell viability assay.

[6] = test system: DU-145; format: functional, cell-based, Homo sapiens; conditions: Homo sapiens, DU-145
Description: SANGER: Inhibition of human DU-145 cell growth in a cell viability assay.

[7] = test system: EW-11; format: functional, cell-based, Homo sapiens; conditions: Homo sapiens, EW-11;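 also: growth inhibition of human EW-11 cells, measured with a cell viability assay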
Description: SANGER: Inhibition of human EW-11 cell growth in a cell viability assay.

[8] = test system: GI-ME-N; format: functional, cell-based, Homo sapiens; conditions: Homo sapiens, GI-ME-N;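 also: growth inhibition of human GI-ME-N cells, read out with a cell viability assay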
Description: SANGER: Inhibition of human GI-ME-N cell growth in a cell viability assay.

[9] = test system: GMS-10; format: functional, cell-based, Homo sapiens; conditions: Homo sapiens, GMS-10;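 also: growth inhibition of GMS-10 cells, read out as cell viability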
Description: SANGER: Inhibition of human GMS-10 cell growth in a cell viability assay.

[10] = test system: GT3TKB; format: functional, cell-based, Homo sapiens; conditions: Homo sapiens, GT3TKB;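 also: growth inhibition of the cell line, read out with a cell viability assay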
Description: SANGER: Inhibition of human GT3TKB cell growth in a cell viability assay.

[11] = test system: HCC 2998; format: functional, cell-based, Homo sapiens; conditions: Homo sapiens, HCC 2998;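 also: growth inhibition of human HCC2998 cells, measured with a cell viability read-out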
Description: SANGER: Inhibition of human HCC2998 cell growth in a cell viability assay.

[12] = test system: HCT-116; format: functional, cell-based, Homo sapiens; conditions: Homo sapiens, HCT-116
Description: SANGER: Inhibition of human HCT-116 cell growth in a cell viability assay.

[13] = test system: HMV-2 cell line; format: functional, cell-based, Homo sapiens; conditions: Homo sapiens, HMV-2;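 also: growth inhibition of HMV-II cells, read out with a cell viability assay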
Description: SANGER: Inhibition of human HMV-II cell growth in a cell viability assay.

[14] = test system: Huh-7; format: functional, cell-based, Homo sapiens; conditions: Homo sapiens, Huh-7;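 also: HuH-7 cell growth inhibition, read out with a cell viability assay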
Description: SANGER: Inhibition of human HuH-7 cell growth in a cell viability assay.

[15] = test system: IGR-1; format: functional, cell-based, Homo sapiens; conditions: Homo sapiens, IGR-1;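 also: growth inhibition of human IGR-1 cells, read out with a cell viability assay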
Description: SANGER: Inhibition of human IGR-1 cell growth in a cell viability assay.

[16] = test system: IST-MEL1; format: functional, cell-based, Homo sapiens; conditions: Homo sapiens, IST-MEL1;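 also: growth inhibition of the cell line, read out with a cell viability assay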
Description: SANGER: Inhibition of human IST-MEL1 cell growth in a cell viability assay.

[17] = test system: IST-MES1; format: functional, cell-based, Homo sapiens; conditions: Homo sapiens, IST-MES1;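 also: growth inhibition of IST-MES1 cells, measured with a cell viability assay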
Description: SANGER: Inhibition of human IST-MES1 cell growth in a cell viability assay.

[18] = test system: KINGS-1; format: functional, cell-based, Homo sapiens; conditions: Homo sapiens, KINGS-1;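 also: cell viability assay measuring suppression of KINGS-1 cell growth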
Description: SANGER: Inhibition of human KINGS-1 cell growth in a cell viability assay.

[19] = test system: KYSE-450; format: functional, cell-based; conditions: Homo sapiens;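 also: cell growth inhibition measured by a viability assay in human KYSE-450 cells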
Description: SANGER: Inhibition of human KYSE-450 cell growth in a cell viability assay.

[20] = test system: LB996-RCC; format: functional, cell-based; conditions: Homo sapiens
Description: SANGER: Inhibition of human LB996-RCC cell growth in a cell viability assay.

[21] = test system: LCLC-103H cell line; format: functional, cell-based, Homo sapiens; conditions: Homo sapiens, LCLC-103H
Description: SANGER: Inhibition of human LCLC-103H cell growth in a cell viability assay.

[22] = test system: LN-405; format: functional, cell-based, Homo sapiens; conditions: Homo sapiens, LN-405
Description: SANGER: Inhibition of human LN-405 cell growth in a cell viability assay.

[23] = test system: Lu-65; format: functional, cell-based; conditions: Homo sapiens;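 also: growth inhibition of Lu-65 cancer cells, read out by a cell viability assay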
Description: SANGER: Inhibition of human LU-65 cell growth in a cell viability assay.

[24] = test system: MIA PaCa-2; format: functional, cell-based, Homo sapiens; conditions: Homo sapiens, MIA PaCa-2;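 also: growth inhibition of MIA PaCa-2 cells, read out with a cell viability assay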
Description: SANGER: Inhibition of human MIA-PaCa-2 cell growth in a cell viability assay.

[25] = test system: MLMA; format: functional, cell-based, Homo sapiens; conditions: Homo sapiens, MLMA;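 also: growth inhibition of MLMA cells (human), determined through a cell viability readout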
Description: SANGER: Inhibition of human MLMA cell growth in a cell viability assay.

[26] = test system: NB69; format: functional, cell-based, Homo sapiens; conditions: Homo sapiens, NB69;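 also: growth inhibition of NB69 cells, determined by a cell viability assay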
Description: SANGER: Inhibition of human NB69 cell growth in a cell viability assay.

[27] = test system: NCI-H1395; format: functional, cell-based, Homo sapiens; conditions: Homo sapiens, NCI-H1395;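 also: cell viability assay read-out quantifying reduced proliferation of human NCI-H1395 cells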
Description: SANGER: Inhibition of human NCI-H1395 cell growth in a cell viability assay.

[28] = test system: NCI-H1792; format: functional, cell-based, Homo sapiens; conditions: Homo sapiens, NCI-H1792;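 also: growth inhibition of human NCI-H1792 cells, read out as cell viability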
Description: SANGER: Inhibition of human NCI-H1792 cell growth in a cell viability assay.

[29] = test system: NCI-H1793; format: functional, cell-based, Homo sapiens; conditions: Homo sapiens, NCI-H1793;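 also: cell growth inhibition, read out by a cell viability assay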
Description: SANGER: Inhibition of human NCI-H1793 cell growth in a cell viability assay.

[30] = test system: NCI-H2122; format: functional, cell-based, Homo sapiens; conditions: Homo sapiens, NCI-H2122;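 also: growth inhibition of the cells, read out with a cell viability assay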
Description: SANGER: Inhibition of human NCI-H2122 cell growth in a cell viability assay.

[31] = test system: NCI-H2228; format: functional, cell-based, Homo sapiens; conditions: Homo sapiens, NCI-H2228;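 also: growth inhibition of human NCI-H2228 cells, read out by a cell viability assay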
Description: SANGER: Inhibition of human NCI-H2228 cell growth in a cell viability assay.

[32] = test system: NCI-H596; format: functional, cell-based, Homo sapiens; conditions: Homo sapiens, NCI-H596;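 also: growth inhibition of NCI-H596 cells, read out with a cell viability assay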
Description: SANGER: Inhibition of human NCI-H596 cell growth in a cell viability assay.

[33] = test system: NCI-H69; format: functional, cell-based; conditions: Homo sapiens;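 also: growth inhibition of the cell line, read out with a cell viability assay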
Description: SANGER: Inhibition of human NCI-H69 cell growth in a cell viability assay.

[34] = test system: NCI-H810; format: functional, cell-based, Homo sapiens; conditions: Homo sapiens, NCI-H810;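 also: IC50 reflects inhibition of cancer cell line growth, read out with a cell viability assay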
Description: SANGER: Inhibition of human NCI-H810 cell growth in a cell viability assay.

[35] = test system: NCI-N87; format: functional, cell-based, Homo sapiens; conditions: Homo sapiens, NCI-N87;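 also: growth inhibition of human NCI-N87 cells, read out with a cell viability assay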
Description: SANGER: Inhibition of human NCI-N87 cell growth in a cell viability assay.

[36] = test system: OMC-1; format: functional, cell-based, Homo sapiens; conditions: Homo sapiens, OMC-1;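 also: growth inhibition of the OMC-1 cell line, measured by a cell viability assay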
Description: SANGER: Inhibition of human OMC-1 cell growth in a cell viability assay.

[37] = test system: OVCAR-3; format: functional, cell-based, Homo sapiens; conditions: Homo sapiens, OVCAR-3;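 also: growth inhibition of human OVCAR-3 cells, determined by a cell viability assay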
Description: SANGER: Inhibition of human OVCAR-3 cell growth in a cell viability assay.

[38] = test system: QIMR-WIL; format: functional, cell-based; conditions: Homo sapiens;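 also: growth inhibition of QIMR-WIL cells, read out with a cell viability assay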
Description: SANGER: Inhibition of human QIMR-WIL cell growth in a cell viability assay.

[39] = test system: SF-126; format: functional, cell-based, Homo sapiens; conditions: Homo sapiens, SF-126;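 also: growth inhibition of human SF126 cells, read out with a cell viability assay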
Description: SANGER: Inhibition of human SF126 cell growth in a cell viability assay.

[40] = test system: SW1990; format: functional, cell-based, Homo sapiens; conditions: Homo sapiens, SW1990;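 also: cell growth inhibition determined with a viability assay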
Description: SANGER: Inhibition of human SW1990 cell growth in a cell viability assay.

[41] = test system: SW684; format: functional, cell-based, Homo sapiens; conditions: Homo sapiens, SW684;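 also: growth inhibition of human SW684 cells, measured by a cell viability assay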
Description: SANGER: Inhibition of human SW684 cell growth in a cell viability assay.

[42] = test system: SW756; format: functional, cell-based, Homo sapiens; conditions: Homo sapiens, SW756;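 also: growth inhibition of human SW756 cells, read out with a cell viability assay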
Description: SANGER: Inhibition of human SW756 cell growth in a cell viability assay.

[43] = test system: SiHa; format: functional, cell-based, Homo sapiens; conditions: Homo sapiens, SiHa;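 also: Viability-based readout of growth inhibition in SiHa cells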
Description: SANGER: Inhibition of human SiHa cell growth in a cell viability assay.

[44] = test system: 5637; format: functional, cell-based, Homo sapiens; conditions: Homo sapiens
Description: SANGER: Inhibition of human 5637 cell growth in a cell viability assay.

[45] = test system: BFTC-909; format: functional, cell-based, Homo sapiens; conditions: Homo sapiens, BFTC-909
Description: SANGER: Inhibition of human BFTC-909 cell growth in a cell viability assay.

[46] = test system: C32; format: functional, cell-based, Homo sapiens; conditions: Homo sapiens, C32;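 also: cell viability assay, with IC50 reflecting inhibition of C32 cell growth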
Description: SANGER: Inhibition of human C32 cell growth in a cell viability assay.

[47] = test system: TGBC1TKB; format: functional, cell-based, Homo sapiens; conditions: Homo sapiens, TGBC1TKB;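 also: growth inhibition of TGBC1TKB cells, read out by a cell viability assay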
Description: SANGER: Inhibition of human TGBC1TKB cell growth in a cell viability assay.

[48] = test system: UACC-257; format: functional, cell-based, Homo sapiens; conditions: Homo sapiens, UACC-257
Description: SANGER: Inhibition of human UACC-257 cell growth in a cell viability assay.

[49] = test system: VA-ES-BJ; format: functional, cell-based, Homo sapiens; conditions: Homo sapiens, VA-ES-BJ;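 also: growth inhibition of the VA-ES-BJ cell line, read out by a cell viability assay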
Description: SANGER: Inhibition of human VA-ES-BJ cell growth in a cell viability assay.

[50] = test system: CHP-212; format: functional, cell-based, Homo sapiens; conditions: Homo sapiens, CHP-212
Description: SANGER: Inhibition of human CHP-212 cell growth in a cell viability assay.

C[C@]1(O)C[C@@H](c2nc(-c3ccc4ccc(-c5ccccc5)nc4c3)c3c(N)nccn32)C1 [LINSITINIB]
IC50 [1]: > 2.56 µM
IC50 [2]: > 2.56 µM
IC50 [3]: > 2.56 µM
IC50 [4]: > 2.56 µM
IC50 [5]: 0.556 µM
IC50 [6]: > 2.56 µM
IC50 [7]: 0.284 µM
IC50 [8]: > 2.56 µM
IC50 [9]: > 2.56 µM
IC50 [10]: > 2.56 µM
IC50 [11]: 0.883 µM
IC50 [12]: > 2.56 µM
IC50 [13]: 0.0885 µM
IC50 [14]: 1.6 µM
IC50 [15]: > 2.56 µM
IC50 [16]: > 2.56 µM
IC50 [17]: > 2.56 µM
IC50 [18]: > 2.56 µM
IC50 [19]: > 2.56 µM
IC50 [20]: > 2.56 µM
IC50 [21]: > 2.56 µM
IC50 [22]: > 2.56 µM
IC50 [23]: > 2.56 µM
IC50 [24]: > 2.56 µM
IC50 [25]: > 2.56 µM
IC50 [26]: 0.583 µM
IC50 [27]: > 2.56 µM
IC50 [28]: > 2.56 µM
IC50 [29]: > 2.56 µM
IC50 [30]: 0.233 µM
IC50 [31]: > 2.56 µM
IC50 [32]: > 2.56 µM
IC50 [33]: > 2.56 µM
IC50 [34]: > 2.56 µM
IC50 [35]: > 2.56 µM
IC50 [36]: > 2.56 µM
IC50 [37]: > 2.56 µM
IC50 [38]: > 2.56 µM
IC50 [39]: > 2.56 µM
IC50 [40]: > 2.56 µM
IC50 [41]: > 2.56 µM
IC50 [42]: > 2.56 µM
IC50 [43]: > 2.56 µM
IC50 [44]: > 2.56 µM
IC50 [45]: > 2.56 µM
IC50 [46]: > 2.56 µM
IC50 [47]: > 2.56 µM
IC50 [48]: > 2.56 µM
IC50 [49]: > 2.56 µM
IC50 [50]: > 2.56 µM
